Experimental data taken from patent publication US10780090B2, “Heteroaryl compounds useful as inhibitors of SUMO activating enzyme” (Millennium Pharmaceuticals, Inc., priority 2014, dated 2020).
pIC50: −log10 of the molar value.

Molecular target: recombinant human SAE enzyme (Homo sapiens (Human), UniProt Q9UBT2)
Assay: SAE HTRF enzyme assay
Type: biochemical
Details: for pIC50: class symbols A/B/C
Procedure, shortened: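 First, recombinant human SAE (0.11 nM) transfers Sumo-Flag onto Ubc9-GST using 0.5 μM ATP for 105 min at 24° C. Next, EDTA-containing detection buffer with labelled anti-Flag and anti-GST antibodies is added for 2 h. Finally, FRET is quantified and percent inhibition or IC50 derived.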

Sequence of recombinant human SAE enzyme (Q9UBT2 whole entry): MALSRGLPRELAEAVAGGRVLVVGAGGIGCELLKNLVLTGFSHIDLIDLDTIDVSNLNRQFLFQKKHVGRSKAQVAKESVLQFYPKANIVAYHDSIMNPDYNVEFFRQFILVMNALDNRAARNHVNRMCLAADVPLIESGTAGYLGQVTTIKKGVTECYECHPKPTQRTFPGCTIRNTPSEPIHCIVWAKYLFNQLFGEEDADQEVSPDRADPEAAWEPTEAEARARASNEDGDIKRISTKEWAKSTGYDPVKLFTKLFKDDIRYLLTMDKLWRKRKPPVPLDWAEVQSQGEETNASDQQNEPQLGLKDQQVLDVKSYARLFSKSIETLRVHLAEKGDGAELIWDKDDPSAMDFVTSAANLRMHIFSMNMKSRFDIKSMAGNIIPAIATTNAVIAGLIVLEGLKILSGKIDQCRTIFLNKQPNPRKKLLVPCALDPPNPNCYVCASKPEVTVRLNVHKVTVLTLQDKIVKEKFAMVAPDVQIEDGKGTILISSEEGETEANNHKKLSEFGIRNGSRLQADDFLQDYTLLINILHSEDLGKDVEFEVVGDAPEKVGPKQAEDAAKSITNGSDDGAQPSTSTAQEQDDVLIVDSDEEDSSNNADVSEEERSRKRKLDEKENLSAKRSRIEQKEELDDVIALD
Sequence of recombinant human SAE enzyme (Q9UBE0 whole entry partner): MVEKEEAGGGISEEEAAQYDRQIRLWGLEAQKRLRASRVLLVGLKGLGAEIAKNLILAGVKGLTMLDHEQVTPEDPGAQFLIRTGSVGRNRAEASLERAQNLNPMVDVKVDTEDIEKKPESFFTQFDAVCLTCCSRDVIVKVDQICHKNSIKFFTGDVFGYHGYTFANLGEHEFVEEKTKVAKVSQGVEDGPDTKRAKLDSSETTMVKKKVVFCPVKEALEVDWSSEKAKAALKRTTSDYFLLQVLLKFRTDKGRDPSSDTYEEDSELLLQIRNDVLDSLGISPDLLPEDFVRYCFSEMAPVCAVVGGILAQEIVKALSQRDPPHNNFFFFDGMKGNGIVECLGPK

| SMILES | Percent Inhibition (Concentration 0.111 μM) | pIC50 | Percent Inhibition (SAE inhibition at compound concentration 0.111 μM) [%] | IC50 (SAE inhibition, class symbols, legend in nM) [nM] | inhibition at 0.111 µM (Concentration 0.111 μM, read-out: Percent Inhibition) [%] |
| --- | --- | --- | --- | --- | --- |
| Cc1sc(C(=O)c2cncnc2N[C@@H]2C[C@H](COS(N)(=O)=O)[C@@H](O)C2)cc1[C@H]1NCCc2ccc(Br)cc21 (single isomer, unassigned) [I-248a, [(1R,2S,4R)-4-{[5-({4-[(1S)-7-bromo-1,2,3,4-tetrahydroisoquinolin-1-yl]-5-methyl-2-thienyl}carbonyl)pyrimidin-4-yl]amino}-2-hydroxycyclopentyl]methyl sulfamate or [(1R,2S,4R)-4-{([5-({4-[(1R)-7-bromo-1,2,3,4-tetrahydroisoquinolin-1-yl]-5-methyl-2-thienyl}carbonyl)pyrimidin-4-yl]amino}-2-hydroxycyclopentyl]methyl sulfamate] | 99 | > 8.00 |  |  |  |
| Cc1sc(C(=O)c2cncnc2NC2CC(O)C(COS(N)(=O)=O)C2)cc1C(N)c1cccc(Cl)c1 (mixture of isomers) [I-6, [(1R,2S,4R)-4-{[5-({4-[(R)-amino(3-chlorophenyl)methyl]-5-methyl-2-thienyl}carbonyl)pyrimidin-4-yl]amino}-2-hydroxycyclopentyl]methyl sulfamate and [(1R,2S,4R)-4-{[5-({4-[(S)-amino(3-chlorophenyl)methyl]-5-methyl-2-thienyl}carbonyl)pyrimidin-4-yl]amino}-2-hydroxycyclopentyl]methyl sulfamate] | 98 | > 8.00 |  |  |  |
| NS(=O)(=O)OCC1CC(Nc2ncncc2C(=O)c2cc(C(O)c3cc(Br)ccc3F)cs2)CC1O (mixture of isomers) [I-19, [(1R,2S,4R)-4-{[5-({4-[(R)-(5-bromo-2-fluorophenyl)(hydroxy)methyl]-2-thienyl}carbonyl)pyrimidin-4-yl]amino}-2-hydroxycyclopentyl]methyl sulfamate and [(1R,2S,4R)-4-{[5-({4-[(S)-(5-bromo-2-fluorophenyl)(hydroxy)methyl]-2-thienyl}carbonyl)pyrimidin-4-yl]amino}-2-hydroxycyclopentyl]methyl sulfamate] | 100 | > 8.00 |  |  |  |
| NS(=O)(=O)OC[C@H]1C[C@@H](Nc2ncncc2C(=O)c2cc([C@@H]3OCCc4cc(F)c(F)cc43)c(Cl)s2)C[C@@H]1O (single isomer, unassigned) [I-290b, [(1R,2S,4R)-4-{[5-({5-chloro-4-[(1R)-6,7-difluoro-3,4-dihydro-1H-isochromen-1-yl]-2-thienyl}carbonyl)pyrimidin-4-yl]amino}-2-hydroxycyclopentyl]methyl sulfamate or [(1R,2S,4R)-4-{[5-({5-chloro-4-[(1S)-6,7-difluoro-3,4-dihydro-1H-isochromen-1-yl]-2-thienyl}carbonyl)pyrimidin-4-yl]amino}-2-hydroxycyclopentyl]methyl sulfamate] |  |  | 97 | < 10 |  |
| CN1Cc2ccc(Cl)cc2[C@@H]1c1csc(C(=O)c2cncnc2N[C@@H]2C[C@H](COS(N)(=O)=O)[C@@H](O)C2)c1 (single isomer, unassigned) [I-265b, [(1R,2S,4R)-4-{[5-({4-[(1R)-6-chloro-2-methyl-2,3-dihydro-1H-isoindol-1-yl]-2-thienyl}carbonyl)pyrimidin-4-yl]amino}-2-hydroxycyclopentyl]methyl sulfamate or [(1R,2S,4R)-4-{[5-({4-[(1S)-6-chloro-2-methyl-2,3-dihydro-1H-isoindol-1-yl]-2-thienyl}carbonyl)pyrimidin-4-yl]amino}-2-hydroxycyclopentyl]methyl sulfamate] | 72 | 7.00 to 8.00 |  |  |  |
| CN(Cc1csc(C(=O)c2cncnc2N[C@@H]2C[C@H](COS(N)(=O)=O)[C@@H](O)C2)c1)c1cccc(Cl)c1 [I-138, [(1R,2S,4R)-4-({5-[(4-{[(3-Chlorophenyl)(methyl)amino]methyl}-2-thienyl)carbonyl]pyrimidin-4-yl}amino)-2-hydroxycyclopentyl]methyl sulfamate] |  | > 8.00 |  |  | 96 |
